Source: ChEMBL document CHEMBL4673362, “Design, synthesis, and biological evaluation of 2,6,7-substituted pyrrolo[2,3-d]pyrimidines as cyclin dependent kinase inhibitor in pancreatic cancer cells” (Bioorg Med Chem Lett, 2021)
Values after ≈ are worked out from the molar mass of the structure shown. Active and inactive are the calls of the source. The rule behind the calls is not given here.

Assays:
[1] = target: Cyclin-dependent kinase 6 (Homo sapiens) (UniProt Q00534); assay: Inhibition of CDK6 (unknown origin) at 1 uM
Sequence of Cyclin-dependent kinase 6 (Homo sapiens) (Q00534 whole entry): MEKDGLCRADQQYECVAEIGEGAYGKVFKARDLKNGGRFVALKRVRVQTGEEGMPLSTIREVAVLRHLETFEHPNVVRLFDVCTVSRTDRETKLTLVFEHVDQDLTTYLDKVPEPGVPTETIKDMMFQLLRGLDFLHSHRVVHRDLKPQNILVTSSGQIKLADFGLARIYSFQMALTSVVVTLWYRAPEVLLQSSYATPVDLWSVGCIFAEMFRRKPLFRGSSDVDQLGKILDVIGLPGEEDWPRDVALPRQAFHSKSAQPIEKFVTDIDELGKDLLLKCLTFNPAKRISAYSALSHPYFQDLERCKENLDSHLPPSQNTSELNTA

[2] = target: Cyclin-dependent kinase 4 (Homo sapiens) (UniProt P11802); assay: Inhibition of CDK4 (unknown origin) at 1 uM
Sequence of Cyclin-dependent kinase 4 (Homo sapiens) (P11802 whole entry): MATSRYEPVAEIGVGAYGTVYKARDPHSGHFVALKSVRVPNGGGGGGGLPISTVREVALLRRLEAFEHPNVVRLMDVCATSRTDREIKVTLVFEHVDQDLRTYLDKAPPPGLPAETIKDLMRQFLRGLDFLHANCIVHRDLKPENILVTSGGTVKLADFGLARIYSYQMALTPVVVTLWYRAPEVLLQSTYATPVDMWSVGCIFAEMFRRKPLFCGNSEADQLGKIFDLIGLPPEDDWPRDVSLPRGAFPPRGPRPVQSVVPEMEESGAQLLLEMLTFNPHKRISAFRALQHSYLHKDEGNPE

[3] = tested on: BXPC-3; assay: Antiproliferative activity against human BxPC-3 cells assessed as inhibition of cell growth by MTT assay; format: functional, cell-based
[4] = target: CDK6/cyclin D1 (Homo sapiens, UniProt Q00534); assay: Inhibition of CDK6/cyclin D1 (unknown origin); format: protein-complex assay
Sequence of CDK6/cyclin D1 (P24385 whole entry): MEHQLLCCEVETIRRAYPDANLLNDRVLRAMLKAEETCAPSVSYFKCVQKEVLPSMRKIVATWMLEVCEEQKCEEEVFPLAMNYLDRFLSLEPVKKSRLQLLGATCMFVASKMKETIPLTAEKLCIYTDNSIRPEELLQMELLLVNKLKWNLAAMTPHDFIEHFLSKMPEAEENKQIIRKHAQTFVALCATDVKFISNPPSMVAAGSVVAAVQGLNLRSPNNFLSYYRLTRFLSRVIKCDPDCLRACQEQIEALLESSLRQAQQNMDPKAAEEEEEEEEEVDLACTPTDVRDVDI
Sequence of CDK6/cyclin D1 (Q00534 whole entry): as the sequence (Q00534 whole entry) above

[5] = target: Cyclin-dependent kinase 4/cyclin D1 (Homo sapiens, UniProt P11802); assay: Inhibition of CDK4/cyclin D1 (unknown origin); format: protein-complex assay
Sequence of Cyclin-dependent kinase 4/cyclin D1 (P11802 whole entry): as the sequence (P11802 whole entry) above
Sequence of Cyclin-dependent kinase 4/cyclin D1 (P24385 whole entry, further chain): as the sequence (P24385 whole entry) above

[6] = tested on: MIA PaCa-2; assay: Antiproliferative activity against human MIA PaCa-2 cells assessed as inhibition of cell growth by MTT assay; format: functional, cell-based
[7] = tested on: MIA PaCa-2; assay: Antiproliferative activity against human MIA PaCa-2 cells assessed as inhibition of cell proliferation at 0.5 uM in presence of 10 to 20 nM PI3K/mTOR inhibitor, BEZ235; format: functional, cell-based
[8] = tested on: MIA PaCa-2; assay: Potency index, ratio of ribociclib IC50 to test compound IC50 for antiproliferative activity against human MIA PaCa-2 cells by MTT assay; format: functional
[9] = target: CDK6/cyclin D1 (Homo sapiens) (UniProt P24385+Q00534); assay: Inhibition of human CDK6/cyclin D1 at 1 uM relative to control; format: protein-complex assay
[10] = target: Cyclin-dependent kinase 4/cyclin D1 (Homo sapiens) (UniProt P11802+P24385); assay: Inhibition of human CDK4/cyclin D1 at 1 uM relative to control; format: protein-complex assay
[11] = target: CDK4/Cyclin D3 (Homo sapiens) (UniProt P11802+P30281); assay: Inhibition of human CDK4/cyclin D3 at 1 uM relative to control; format: protein-complex assay
[12] = target: Mitogen-activated protein kinase kinase kinase 9 (Homo sapiens) (UniProt P80192); assay: Inhibition of human MLK1 at 1 uM relative to control
Sequence of Mitogen-activated protein kinase kinase kinase 9 (Homo sapiens) (P80192 whole entry, looked up): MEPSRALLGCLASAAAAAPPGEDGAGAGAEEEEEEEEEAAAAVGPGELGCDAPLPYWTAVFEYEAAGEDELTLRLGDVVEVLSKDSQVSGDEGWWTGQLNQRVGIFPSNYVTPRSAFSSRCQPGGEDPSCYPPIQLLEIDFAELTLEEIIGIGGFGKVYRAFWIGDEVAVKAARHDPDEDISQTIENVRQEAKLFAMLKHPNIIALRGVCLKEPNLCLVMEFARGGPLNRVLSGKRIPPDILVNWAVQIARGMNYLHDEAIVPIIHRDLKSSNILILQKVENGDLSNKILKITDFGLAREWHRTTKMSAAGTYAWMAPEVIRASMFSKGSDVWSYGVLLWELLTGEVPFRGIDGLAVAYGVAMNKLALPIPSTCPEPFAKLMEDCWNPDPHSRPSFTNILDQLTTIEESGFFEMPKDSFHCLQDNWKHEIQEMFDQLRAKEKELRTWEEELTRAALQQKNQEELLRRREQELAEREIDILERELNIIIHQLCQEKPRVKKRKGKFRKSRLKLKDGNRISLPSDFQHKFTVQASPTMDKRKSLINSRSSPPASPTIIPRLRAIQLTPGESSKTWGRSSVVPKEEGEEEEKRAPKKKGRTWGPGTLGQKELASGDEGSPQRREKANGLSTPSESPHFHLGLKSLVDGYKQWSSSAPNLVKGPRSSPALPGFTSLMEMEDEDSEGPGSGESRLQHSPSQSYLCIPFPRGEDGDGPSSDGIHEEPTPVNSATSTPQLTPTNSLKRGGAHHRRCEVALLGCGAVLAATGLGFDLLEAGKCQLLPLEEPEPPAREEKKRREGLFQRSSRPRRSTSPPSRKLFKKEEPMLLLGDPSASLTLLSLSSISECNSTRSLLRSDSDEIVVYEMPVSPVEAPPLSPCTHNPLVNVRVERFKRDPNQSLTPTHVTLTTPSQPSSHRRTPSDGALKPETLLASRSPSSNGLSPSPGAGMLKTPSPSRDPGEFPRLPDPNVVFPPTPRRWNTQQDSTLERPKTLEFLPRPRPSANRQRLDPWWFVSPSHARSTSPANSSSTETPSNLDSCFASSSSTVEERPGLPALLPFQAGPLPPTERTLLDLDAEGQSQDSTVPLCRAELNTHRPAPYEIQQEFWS

[13] = target: Tyrosine-protein kinase Fer (Homo sapiens) (UniProt P16591); assay: Inhibition of human FER at 1 uM relative to control
Sequence of Tyrosine-protein kinase Fer (Homo sapiens) (P16591 whole entry, looked up): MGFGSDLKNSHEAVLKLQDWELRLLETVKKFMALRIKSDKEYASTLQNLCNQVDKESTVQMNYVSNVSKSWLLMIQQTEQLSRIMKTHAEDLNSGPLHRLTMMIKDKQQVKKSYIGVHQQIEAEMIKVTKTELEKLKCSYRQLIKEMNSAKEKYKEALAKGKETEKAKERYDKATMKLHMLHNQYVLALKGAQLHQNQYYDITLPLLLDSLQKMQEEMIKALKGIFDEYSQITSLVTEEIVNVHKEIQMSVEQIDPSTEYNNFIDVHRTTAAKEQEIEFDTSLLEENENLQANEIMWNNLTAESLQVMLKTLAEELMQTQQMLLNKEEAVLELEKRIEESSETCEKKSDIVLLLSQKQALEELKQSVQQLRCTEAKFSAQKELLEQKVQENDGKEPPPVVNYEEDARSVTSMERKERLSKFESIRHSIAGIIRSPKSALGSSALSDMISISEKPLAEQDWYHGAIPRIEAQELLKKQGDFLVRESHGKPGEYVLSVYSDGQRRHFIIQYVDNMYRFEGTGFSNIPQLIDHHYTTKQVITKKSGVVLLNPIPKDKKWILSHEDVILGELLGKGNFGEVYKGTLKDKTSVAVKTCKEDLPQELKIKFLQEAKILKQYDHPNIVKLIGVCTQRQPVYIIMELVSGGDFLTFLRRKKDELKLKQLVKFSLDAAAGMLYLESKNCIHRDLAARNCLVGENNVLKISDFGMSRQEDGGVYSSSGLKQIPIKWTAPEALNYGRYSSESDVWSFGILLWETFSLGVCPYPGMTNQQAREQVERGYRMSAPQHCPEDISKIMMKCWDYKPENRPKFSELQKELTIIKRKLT

[14] = target: Calcium/calmodulin-dependent protein kinase type 1 (Homo sapiens) (UniProt Q14012); assay: Inhibition of human CAMK1 at 1 uM relative to control
Sequence of Calcium/calmodulin-dependent protein kinase type 1 (Homo sapiens) (Q14012 whole entry, looked up): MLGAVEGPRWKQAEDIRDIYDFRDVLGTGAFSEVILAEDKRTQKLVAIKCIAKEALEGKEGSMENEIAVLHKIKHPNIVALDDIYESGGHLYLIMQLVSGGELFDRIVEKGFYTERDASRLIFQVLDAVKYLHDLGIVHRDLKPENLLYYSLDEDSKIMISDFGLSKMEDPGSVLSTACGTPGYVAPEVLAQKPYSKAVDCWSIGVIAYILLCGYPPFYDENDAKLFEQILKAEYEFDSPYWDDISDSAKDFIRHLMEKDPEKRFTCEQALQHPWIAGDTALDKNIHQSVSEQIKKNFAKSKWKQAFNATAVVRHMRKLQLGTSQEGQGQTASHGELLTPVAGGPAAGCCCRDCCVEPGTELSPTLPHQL

[15] = target: Calcium/calmodulin-dependent protein kinase kinase 1 (Homo sapiens) (UniProt Q8N5S9); assay: Inhibition of human CAMKKA at 1 uM relative to control
Sequence of Calcium/calmodulin-dependent protein kinase kinase 1 (Homo sapiens) (Q8N5S9 whole entry, looked up): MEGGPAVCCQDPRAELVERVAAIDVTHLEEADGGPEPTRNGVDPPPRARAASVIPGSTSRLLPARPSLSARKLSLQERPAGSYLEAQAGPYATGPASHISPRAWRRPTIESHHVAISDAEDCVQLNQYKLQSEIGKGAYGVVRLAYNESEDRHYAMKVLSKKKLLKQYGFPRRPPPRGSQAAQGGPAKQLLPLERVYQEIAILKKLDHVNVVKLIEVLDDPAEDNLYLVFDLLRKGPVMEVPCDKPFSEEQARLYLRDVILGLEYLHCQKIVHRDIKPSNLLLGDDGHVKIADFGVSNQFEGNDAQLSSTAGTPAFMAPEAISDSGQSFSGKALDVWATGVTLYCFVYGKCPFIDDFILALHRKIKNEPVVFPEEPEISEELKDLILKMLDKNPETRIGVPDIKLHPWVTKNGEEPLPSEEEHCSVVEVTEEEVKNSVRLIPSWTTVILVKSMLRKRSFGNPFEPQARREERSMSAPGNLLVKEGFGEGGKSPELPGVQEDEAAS

[16] = target: Dual specificity protein kinase TTK (Homo sapiens) (UniProt P33981); assay: Inhibition of human TTK at 1 uM relative to control
[17] = tested on: MIA PaCa-2; assay: Cell cycle arrest in human MIA PaCa-2 cells assessed as accumulation at G1 phase; format: functional, cell-based; conditions: dose 0.8-2.5 µM
[18] = tested on: MIA PaCa-2; assay: Cell cycle arrest in human MIA PaCa-2 cells assessed as accumulation at G1 phase at 2.5 uM (reference value: 44.09 %); format: functional
[19] = tested on: MIA PaCa-2; assay: Cell cycle arrest in human MIA PaCa-2 cells assessed as accumulation at G1 phase at 1.6 uM (reference value: 44.09 %); format: functional
[20] = tested on: MIA PaCa-2; assay: Cell cycle arrest in human MIA PaCa-2 cells assessed as accumulation at G1 phase at 0.8 uM (reference value: 44.09 %); format: functional
[21] = tested on: MIA PaCa-2; assay: Cell cycle arrest in human MIA PaCa-2 cells assessed as accumulation at G2 phase at 2.5 uM (reference value: 10.64 %); format: functional
[22] = tested on: MIA PaCa-2; assay: Cell cycle arrest in human MIA PaCa-2 cells assessed as accumulation at G2 phase at 1.6 uM (reference value: 10.64 %); format: functional
[23] = tested on: MIA PaCa-2; assay: Cell cycle arrest in human MIA PaCa-2 cells assessed as accumulation at G2 phase at 0.8 uM (reference value: 10.64 %); format: functional
[24] = tested on: MIA PaCa-2; assay: Cell cycle arrest in human MIA PaCa-2 cells assessed as accumulation at S phase at 2.5 uM (reference value: 45.27 %); format: functional
[25] = tested on: MIA PaCa-2; assay: Cell cycle arrest in human MIA PaCa-2 cells assessed as accumulation at S phase at 1.6 uM (reference value: 45.27 %); format: functional
[26] = tested on: MIA PaCa-2; assay: Cell cycle arrest in human MIA PaCa-2 cells assessed as accumulation at S phase at 0.8 uM (reference value: 45.27 %); format: functional
[27] = tested on: MIA PaCa-2; assay: Antiproliferative activity against human MIA PaCa-2 cells assessed as inhibition of cell proliferation at 1 uM in presence of PI3K/mTOR inhibitor, BEZ235; format: functional, cell-based
[28] = Solubility of the compound at pH 7.4; format: physicochemical; conditions: buffer
[29] = Permeability of the compound at pH 7.4 by PAMPA; format: ADME; conditions: read-out: permeability
[30] = Permeability of the compound at pH 5.0 by PAMPA; format: ADME; conditions: read-out: permeability
[31] = Metabolic stability in rat liver microsomes assessed as half life; format: ADME, Microsome
[32] = Metabolic stability in human liver microsomes assessed as half life; format: ADME, Microsome
[33] = target: Cyclin-dependent kinase 9 (Homo sapiens) (UniProt P50750); assay: Inhibition of CDK9 (unknown origin) at 1 uM relative to control
[34] = target: Cyclin-dependent kinase 9 (Homo sapiens) (UniProt P50750); assay: Inhibition of CDK9 (unknown origin) at 1 uM
[35] = target: Cyclin-dependent kinase 7 (Homo sapiens) (UniProt P50613); assay: Inhibition of CDK7 (unknown origin) at 1 uM
[36] = target: Cyclin-dependent kinase 8 (Homo sapiens) (UniProt P49336); assay: Inhibition of CDK8 (unknown origin) at 1 uM
[37] = target: Cyclin-dependent kinase 5 (Homo sapiens) (UniProt Q00535); assay: Inhibition of CDK5 (unknown origin) at 1 uM
Sequence of Cyclin-dependent kinase 5 (Homo sapiens) (Q00535 whole entry, looked up): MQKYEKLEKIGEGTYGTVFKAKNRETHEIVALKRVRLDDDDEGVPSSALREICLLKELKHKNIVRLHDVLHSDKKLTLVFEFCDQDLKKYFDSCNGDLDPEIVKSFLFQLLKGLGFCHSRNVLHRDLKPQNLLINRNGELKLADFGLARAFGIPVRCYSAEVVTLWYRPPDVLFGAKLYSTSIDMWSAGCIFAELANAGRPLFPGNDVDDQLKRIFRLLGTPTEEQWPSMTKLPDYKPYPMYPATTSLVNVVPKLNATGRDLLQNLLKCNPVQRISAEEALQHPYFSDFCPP

[38] = target: Cyclin-dependent kinase 3 (Homo sapiens) (UniProt Q00526); assay: Inhibition of CDK3 (unknown origin) at 1 uM
[39] = target: Cyclin-dependent kinase 2 (Homo sapiens) (UniProt P24941); assay: Inhibition of CDK2 (unknown origin) at 1 uM
[40] = target: Cyclin-dependent kinase 1 (Homo sapiens) (UniProt P06493); assay: Inhibition of CDK1 (unknown origin) at 1 uM

With `O=C(Nc1ccccc1)c1cc2cnc(Nc3ccc(N4CCNCC4)cn3)nc2n1C1CCCC1` the inhibition [1] was “Active”, the inhibition [2] was “Active” and the IC50 [3] was 5.12 µM. For the same compound, the IC50 [4] was 63.8 nM, the IC50 [5] was 28.7 nM and the IC50 [6] was 2.8 µM.
With `CN(C)C(=O)c1cc2cnc(Nc3ccc(N4CCNCC4)cn3)nc2n1Cc1ccccc1` the IC50 [5] was over 100000 nM and the IC50 [6] was 30.4 µM.
In the case of `CN(C)C(=O)c1cc2cnc(Nc3ccccc3)nc2n1C1CCCC1`, the IC50 [5] is reported as 92.9 nM and the IC50 [6] is reported as 54.9 µM.
Compound `CCN1CCN(Cc2ccc(Nc3ncc(F)c(-c4cc(F)c5nc(C)n(C(C)C)c5c4)n3)nc2)CC1` [ABEMACICLIB] has an IC50 [6] of 5.8 µM.
For `Cc1ccccc1NC(=O)c1cc2cnc(Nc3ccc(N4CCNCC4)cn3)nc2n1C1CCCC1`, the inhibition [1] was “Active”, the inhibition [2] was “Active” and the IC50 [3] was 3.34 µM. The IC50 [4] was 64 nM, the IC50 [5] was 28.2 nM and the IC50 [6] was 2.5 µM.
Compound `COc1ccc(NC(=O)c2cc3cnc(Nc4ccc(N5CCNCC5)cn4)nc3n2C2CCCC2)cc1` has an IC50 [3] of 8.97 µM, an IC50 [4] of 391 nM and an IC50 [5] of 121 nM. For the same compound, the IC50 [6] was 2.88 µM.
For `COc1ccccc1NC(=O)c1cc2cnc(Nc3ccc(N4CCNCC4)cn3)nc2n1C1CCCC1`, the Activity [7] was “Active”, the “Ratio IC50” value [8] was 10 and the inhibition [1] was “Active”. The inhibition [2] was “Active”, the inhibition [9] was over 80% and the inhibition [10] was over 80%. The inhibition [11] was over 80%, the inhibition [12] was over 80% and the inhibition [13] was over 80%. It also gave an inhibition [14] of over 80%, an inhibition [15] of over 80% and an inhibition [16] of over 80%. For the same compound, the Activity [17] was “Dose-dependent effect”, the Activity [18] was 74.31% and the Activity [19] was 65.48%. It also gave an Activity [20] of 60%, an Activity [21] of 4.06% and an Activity [22] of 3.69%. For the same compound, the Activity [23] was 4.85%, the Activity [24] was 21.63% and the Activity [25] was 30.8%. It also gave an Activity [26] of 35.15%, an IC50 [3] of 4.12 µM and an IC50 [4] of 52.3 nM. The IC50 [5] was 20.5 nM, the IC50 [6] was 1.83 µM and the Activity [27] was “Active”. For the same compound, the solubility [28] was 1.1 µg/mL (≈ 2.15 µM), the Papp [29] was 464 ×10⁻⁶ cm/s and the Papp [30] was 517 ×10⁻⁶ cm/s. The half-life [31] was over 30 min and the half-life [32] was 72.8 min.
In the case of `O=C(Nc1ccccc1)c1cc2cnc(Nc3ccccc3)nc2n1C1CCCC1`, the IC50 [5] is reported as 1190 nM and the IC50 [6] is reported as 14 µM.
Work on `O=C(c1cc2cnc(Nc3ccc(N4CCNCC4)cn3)nc2n1C1CCCC1)N1CCCCC1` yielded an IC50 [5] of 861 nM and an IC50 [6] of 39.6 µM.
With `Cc1cc(C)nc(NS(=O)(=O)c2ccc(Nc3ncc4cc(C(=O)N(C)C)n(C5CCCC5)c4n3)cc2)n1` the Activity [18] was 35.53%, the Activity [19] was 43.39% and the Activity [20] was 44.7%. For the same compound, the Activity [21] was 27.08%, the Activity [22] was 17.5% and the Activity [23] was 18.44%. It also gave an Activity [24] of 37.29%, an Activity [25] of 39.11% and an Activity [26] of 36.86%. For the same compound, the inhibition [33] was 99%, the IC50 [5] was 150 nM and the IC50 [6] was 8.25 µM. It also gave a solubility [28] of 7.5 µg/mL (≈ 14 µM), a Papp [29] of 376 ×10⁻⁶ cm/s and a Papp [30] of 443 ×10⁻⁶ cm/s. For the same compound, the half-life [31] was over 30 min and the half-life [32] was 25.1 min.
Work on `O=C(Nc1ccc[n+]([O-])c1)c1cc2cnc(Nc3ccc(N4CCNCC4)cn3)nc2n1C1CCCC1` yielded an IC50 [5] of 3050 nM and an IC50 [6] of 124 µM.
In the case of `O=C(Nc1ccccc1)c1cc2cnc(Nc3ccc(N4CCNCC4)cn3)nc2n1Cc1ccccc1`, the inhibition [34] is reported as “inactive”, the inhibition [35] is reported as “inactive” and the inhibition [36] is reported as “inactive”. For the same compound, the inhibition [37] was “inactive”, the inhibition [1] was “inactive” and the inhibition [38] was “inactive”. For the same compound, the inhibition [2] was “inactive”, the inhibition [39] was “inactive” and the inhibition [40] was “inactive”. For the same compound, the inhibition [9] was “inactive”, the inhibition [10] was “inactive” and the inhibition [11] was “inactive”. The inhibition [12] was “inactive”, the inhibition [13] was “inactive” and the inhibition [14] was “inactive”. The inhibition [15] was “inactive”, the inhibition [16] was “inactive” and the IC50 [5] was over 100000 nM. For the same compound, the IC50 [6] was 3.6 µM.
